The text below walks through data of US20240110200A1, “Recombinant AAV Vectors and Gene Therapies for Treating Brain Diseases” (City University of Hong Kong, priority 2022, published 2024).

Data set [1] relates to GFAP+ cells / Camkll+ cells in cortex and hippocampus. Description: GFAP and Camkll immunostaining of TLE mouse brain. Type of data set: in vivo, C57BL/6J male mice. Particulars: right intrahippocampal KA-injection; n=10 sections from N=4 mice. On the procedure: For immunohistochemistry, mice are deeply anaesthetized by an overdose of pentobarbital sodium. Mice are transcardially perfused with 30 mL cold phosphate-buffered saline (PBS) and 30 mL 4% (w/v) paraformaldehyde (4% PFA). Brain tissue is removed, post-fixed with 4% PFA, and treated with 30% (w/v) sucrose in 4% PFA at 4° C. for 2˜3 days. Brain tissue is sectioned on a cryostat (30 μm for standard staining and 10 μm for Super-Resolution imaging) (Leica CM3500, Germany) and preserved with antifreeze buffer (20% (v/v) glycerine and 30% (v/v) ethylene glycol diluted in PBS) at −20° C. For immunostaining and statistics of co-labelled neurons and axonal synapses in the AC, serial sections containing the AC are selected for analysis. […]
Images are took at 20× magnification and montaged together with the same laser settings between the parallel studies. […] For quantification of co-localization, neurons expressing the indicated reporter are counted using only the corresponding color channel. Then, among these cells, the number of neurons co-expressing the marker of interest is counted by the Nikon imaging analysis software (NIS-Elements Viewer 5.21). […] A neuron is positive for a given marker if the corresponding signal is above background fluorescence. The ratio of neurons co-expressing both markers over the total number of cells expressing only the reporter is then calculated. […]

Data set [2] concerns KA-induced chronic epileptic mice. Description: Intrahippocampal kainic acid injection-induced chronic epilepsy (TLE) model, seizure monitoring by MMRS. The format is in vivo, C57BL/6J male mice. Particulars: 650 nL KA (0.3 mg/mL) intrahippocampal, no intervention. On the procedure:
C57BL/6J male mice (6˜7 weeks old) are anaesthetized with pentobarbital (100 mg/kg), a craniotomy is performed perpendicularly to the […] of the hippocampus (−2.06 mm posterior to the bregma, −1.80 mm to the midline, and −1.60 mm to the dura), and 650 nL KA (0.3 mg/mL) is injected at a speed of 30 nL/min.
Upon recovering from the anesthesia, the mice are monitored for at least an hour for any signs of acute epileptic seizures before being placed back into their cages for routine monitoring. For the mice only injected with KA (FIG. S16), they are monitored for 16 weeks after the KA injection.
The mice are housed separately under a standard 12-h light/dark cycle and stable temperature (23-25° C.) with free access to food and water. Each KA-injected mouse is monitored and recorded 24 h per day using a 360-smart camera for a minimum of three weeks after surgery. […]
The seizures of the mice are evaluated in a blinded manner; the examiners of the video are blind to the history of the mice. […]
After the C57bL/6J male mice (9-10 weeks old) show a stable occurrence of spontaneous recurrent seizures, epileptic mice are randomly divided into two groups (experimental and control). The daily seizure occurrence is recorded for 2 weeks as the pre-treatment baseline for each mouse (FIG. 6). […]

On to `C=C(C)[C@H]1CN[C@H](C(=O)O)[C@H]1CC(=O)O` [KA, Kainic Acid], for which, in data set [1], the “GFAP+ cells in the right hippocampus after 16 weeks” value is 748.56±74.88 per mm^2. Besides, the “recurrent convulsive seizures of stages 3 to 5 at week 4” value in data set [2] is recorded as 5.2±1.52 seizures per day.
